Source: patent US9301521B2, “Bee attractants” (priority 2013, dated 2016)

Tests used:
[1] = system: O. lignaria female antennae; assay: EAG response to specific fatty acids and mixtures; set-up: species or system Osmia lignaria; conditions: O. lignaria (n = 12); 100 CE
Excerpt: (§1) The objective of this example is to compare antennal responses of three Osmia species (O. lignaria, O. bucephala, and O. cornifrons obtained from near a Pennsylvania apple orchard) to each of three fatty acids, each combined mixture of two acids, and the combined mixture of all acids (see Table 11). Female and male bees are maintained in laboratory cages and fed honey-water ad libitum for four days. On the fourth day, one antenna at a time is removed from each chilled, live female test bee with scissors and placed on the electrode probe of a Syntech EAG (Kirchzarten, Germany). The electrode with the antenna is inserted into a glass tube into which flows humidified air, and into which a stimulus (air, a fatty acid, or fatty acid mixture) is applied.
(§2) Each of the above indicated fatty acids, purchased from Sigma-Aldrich (St. Louis, Mo.), are dissolved in ethyl alcohol at a concentration similar to that used for the Synthetic Blend. Each fatty acid and each mixture (Equistar Chemicals, LP, Houston, Tex.) is evenly applied to a circular filter paper in Petri dish (9 cm) at dose of 100 CE. A 1.5 cm^2 piece of filter paper is cut from the center of the filter paper circle. The piece of filter paper is placed into the disposable glass pipette (4.6 cm) that is used for delivery by applying a controlled puff of air over the filter paper.
(§3) Each of the single or mixtures of fatty acids described above (see Table 11) and a control (air) are tested on an antenna: Air or filter paper pieces with each fatty acid or fatty acids mixture are delivered in succession every minute until an antenna is exposed to each cue and air three times (total test period=30 minutes). The antennal responses are recorded, and their amplitudes are measured using Syntech EAG software (Kirchzarten, Germany). The antennal responses of ≦12 female bees per species are recorded. […]

[2] = system: O. cornifrons female antennae; assay: EAG response to specific fatty acids and mixtures; set-up: species or system Osmia cornifrons; conditions: O. cornifrons (n = 12); 100 CE
Excerpt: as §1, §2, §3

[3] = Evaporation rates of attractants (weight loss of vials); type: physicochemical
Procedure: The objective of this experiment is to quantify the loss of the fatty acids and Synthetic Blend via evaporation. Synthetic Blend is prepared as per Example 3. Decanoic acid, dodecanoic acid, and tetradecanoic acid are purchased as per Example 4. Synthetic Blend is a liquid at room temperature. Vials containing between 0.235 and 0.304 grams of either Synthetic Blend or each individual fatty acid are placed in a 40° C. incubator and a ˜30° C. incubator room with a fan and are weighed after 1, 4, 10, 24, 31, 39 and 44 days. Three vials are monitored for each attractant, and the average weight loss is calculated. All samples lose weight faster at 30° C. with airflow compared to 40° C. without airflow. After […] at 30° C. with airflow, Synthetic Blend loses only 0.57% of its weight (see FIG. 2). This loss of mass is caused mostly by evaporation of decanoic acid which comprises approximately 73% of Synthetic Blend. After 24 days, Synthetic Blend loses 9.8% of its mass and after 44 days, 17.2% of its mass. A linear relationship is found between weight loss and days for both environments (see FIG. 3).

[4] = system: O. bucephala female antennae; assay: EAG response to specific fatty acids and mixtures; set-up: species or system Osmia bucephala; conditions: O. bucephala (n = 8); 100 CE
Excerpt: as §1, §2, §3

O. lignaria = assay: Field tests with fatty acids on filter papers, apple orchard in Utah; type: in vivo, Osmia lignaria; conditions: single fatty acid set; for females found in artificial nest sites, range: 9 sample dates; for Cells/replicate / Nests/replicate / Females/date: 400 CE per nest site; for Cells/replicate / Nests/replicate: five replicates; for Females/date: mean ± SE for 9 sample dates
Excerpt: To better understand whether application of one, or some mixture of, free fatty acids to nesting material or artificial nest sites is attractive to O. lignaria, two experimental sets are generated so that one set tests for differences in bee response to each single fatty acid and the other set tests for differences in bee response to mixtures of the fatty acids described above in Table 11. Fatty acids are applied to separate filter papers so that each filter paper contains 200 CE. As a negative control, the volume of ethyl alcohol used for the other samples is applied to its own filter paper. For the experiment in an apple orchard in Utah, each small, corrugated plastic box artificial nest site (20×23×20 cm), with two bundles of 19 paper tubes each, is hung in an apple tree; nest sites are separated by one tree between them within each replicate group. To each nest site, two of the 200 CE impregnated filter papers are applied; thus, a total of 400 CE of the stimulus is present within each nest site. Each filter paper (containing either a single fatty acid, one mixture of fatty acids, or the negative control) is attached using cable ties to the front of one tube in each of the two bundles in each artificial nest site. The filter papers are replaced weekly. Each artificial nest site contains only one type of treatment. For the single fatty acid comparison, artificial nest sites are placed in the orchard in five replicates of the three treatments plus a control (i.e., four nest sites per replicate), with each artificial nest site opening facing southeast. For the mixtures of fatty acids comparison, artificial nest sites are placed in the orchard in five replicates of the four treatments plus a control (i.e., five nest sites per replicate), with each artificial nest site opening facing southeast. Both experimental sets are located in the same orchard where they are intermittently placed but separated by at least two rows of apple trees. A total of 540 female and 1000 male bees are released throughout the orchard at least one tree row from the artificial nest sites using several release box sites (with equal numbers of bees per box). Artificial nest sites are checked daily for the presence of male and female bees and for tubes with completed nests. Tubes with completed nests are removed and are replaced with fresh ones. Later, all nests containing any bee cells are examined with x-radiography to determine number of cells in each nest.

SMILES	Mean Amplitude ± SE [1]	Mean Amplitude ± SE [2]	relative evaporation of blend components [3]	Mean Amplitude ± SE [4]	females found in artificial nest sites, range (O. lignaria)	Cells/replicate (O. lignaria)	Nests/replicate (O. lignaria)	Females/date (O. lignaria)
CCCCCCCCCC(=O)O [Decanoic acid, decanoic acid]	−0.98 ± 0.06	−0.89 ± 0.06	evaporated much faster than tetradecanoic acid and dodecanoic acid	−1.31 ± 0.10	4-15	13.4 ± 6.13	2.6 ± 1.17	10.2 ± 1.14
CCCCCCCCCCCCCC(=O)O [Tetradecanoic acid, tetradecanoic acid]	−0.41 ± 0.03	−0.43 ± 0.04	–	−0.92 ± 0.07	0-1	1.6 ± 1.6	0.2 ± 0.2	0.4 ± 0.17
CCCCCCCCCCCC(=O)O [Dodecanoic acid, dodecanoic acid]	−0.41 ± 0.03	−0.43 ± 0.04	–	−0.83 ± 0.06	–	8.8 ± 7.40	1.4 ± 1.17	3.4 ± 0.67
